One may read the inhibition as the drop in the measured response relative to a control, in per cent. High values mean a response far below the control, low ones a response near the control.

Common to all, as to assay type: cell-based
Test [1] concerns C. albicans SC5314 and SN152. In words: Competition for cellular uptake with probe 1, flow cytometry. The note with it: added simultaneously with probe 1; caspofungin 1 μM, 10 μM; fluconazole 10 μM. The procedure:
To determine if caspofungin competes for cellular uptake with fluorescent probe 1, both the drug and the probe were added simultaneously to cultures of strains SC5314 and SN152. The uptake of probe 1 was measured by flow cytometry every 15 minutes for 1 hour (FIG. 6B). […] No effect on the uptake of probe 1 was detected in cells co-treated with the antifungal azole drug fluconazole, which inhibits the biosynthesis of fungal membrane sterol, ergosterol.

The test system of test [2] is C. albicans SC5314 and C. albicans SN152. In words: Effect of endocytosis inhibitors on growth of Candida cells. The note with it: 8 μg/mL, FIGS. 6C-6F.
Test [3] concerns C. albicans SC5314 and SN152 cells. In words: Effect of endocytosis inhibitors on probe 1 uptake, flow cytometry. The note with it: 8 μg/mL inhibitor, 1 μM probe 1, after 30 min, both SC5314 and SN152. The procedure: Assuming that echinocandin probe uptake occurs via endocytosis, then inhibitors of endocytosis should inhibit probe uptake as well. The accumulation of probe 1 in C. albicans SC5314 and SN152 cells was measured by flow cytometry in the absence and presence of endocytosis inhibitors trifluoperazine (TFP) or pyrroloquinoxaline derivative CGS 12066B (FIG. 6A).
For example, after 30 min, TFP inhibited the uptake of probe 1 by approximately 30% and CGS 12066B inhibited its uptake by approximately 60% in both C. albicans SC5314 and SN152.
For orientation: A flow cytometer gives signals particle by particle.

Consider `OC(Cn1cncn1)(Cn1cncn1)c1ccc(F)cc1F` [fluconazole], for which the “effect on the uptake of probe 1” value in test [1] was “No effect”.

Consider `CN1CCN(CCCN2c3ccccc3Sc3ccc(C(F)(F)F)cc32)CC1` [TFP, trifluoperazine], for which the effect on growth result in test [2] was “modestly reduce growth”. The inhibition at 8 µg/mL in test [3] (Candida albicans, 0.5 h) was about 30%.

`CN1CCN(c2nc3cc(C(F)(F)F)ccc3n3cccc23)CC1.O=C(O)/C=C\C(=O)O.O=C(O)/C=C\C(=O)O` [CGS 12066B]: the effect on growth result in test [2] is “modestly reduce growth”. In test [3], the “inhibition of the uptake of probe 1” value was “approximately 60%”.

These data come from patent publication US20230173018A1, “CASPOFUNGIN DERIVATIVES AND ASSAYS FOR EVALUATING ANTIFUNGAL TREATMENT EFFICACY” (priority 2020, published 2023).
